In ChEMBL document CHEMBL1201862, “PubChem BioAssay data set” (2004):
Active and inactive are the calls of the source.

Columns and labels:
Escherichia coli [1] = assay: microbe, parasite or virus in culture
Escherichia coli [2] = assay: microbe, parasite or virus in culture; remark: listed apart in the source
Hexokinase HKDC1 = biological target: T1, Hexokinase HKDC1 (Homo sapiens, UniProt Q2TB90); assay: analog inhibition of human HKDC1 activity – biochemical, set 2, SAR follow-up (AID 588355); format: functional
T1 sequence (Q2TB90 whole entry): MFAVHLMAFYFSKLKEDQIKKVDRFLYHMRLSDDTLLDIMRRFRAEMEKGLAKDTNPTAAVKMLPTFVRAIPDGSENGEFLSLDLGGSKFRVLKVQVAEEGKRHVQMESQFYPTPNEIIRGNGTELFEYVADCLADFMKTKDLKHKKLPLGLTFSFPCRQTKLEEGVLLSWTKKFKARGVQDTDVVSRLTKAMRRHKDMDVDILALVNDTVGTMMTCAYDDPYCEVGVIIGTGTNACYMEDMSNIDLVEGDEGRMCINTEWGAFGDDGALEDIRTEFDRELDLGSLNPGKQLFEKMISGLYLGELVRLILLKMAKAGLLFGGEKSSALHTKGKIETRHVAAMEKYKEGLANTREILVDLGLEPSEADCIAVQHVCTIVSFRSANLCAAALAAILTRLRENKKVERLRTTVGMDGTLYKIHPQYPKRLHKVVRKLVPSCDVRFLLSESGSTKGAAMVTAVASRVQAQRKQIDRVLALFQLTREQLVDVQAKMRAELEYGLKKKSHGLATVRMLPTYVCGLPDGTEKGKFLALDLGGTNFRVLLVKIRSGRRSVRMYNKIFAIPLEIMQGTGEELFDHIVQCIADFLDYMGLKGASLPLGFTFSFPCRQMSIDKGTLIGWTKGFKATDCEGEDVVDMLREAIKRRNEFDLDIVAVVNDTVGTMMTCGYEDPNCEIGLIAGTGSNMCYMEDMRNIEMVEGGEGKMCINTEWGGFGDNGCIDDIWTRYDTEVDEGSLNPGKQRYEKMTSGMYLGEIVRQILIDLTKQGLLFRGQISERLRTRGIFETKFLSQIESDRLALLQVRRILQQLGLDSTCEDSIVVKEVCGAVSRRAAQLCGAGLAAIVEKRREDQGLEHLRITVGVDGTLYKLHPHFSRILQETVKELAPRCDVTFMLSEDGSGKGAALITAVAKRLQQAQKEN

Hexokinase-1 = biological target: T2, Hexokinase-1 (Homo sapiens, UniProt P19367); assay: hexokinase 1 activity inhibitors, potency – biochemical, set 2, resazurin fluorescence coupled readout, selectivity assay for HKDC1 inhibitor project, SAR follow-up (AID 588356); format: functional
T2 sequence (P19367 whole entry): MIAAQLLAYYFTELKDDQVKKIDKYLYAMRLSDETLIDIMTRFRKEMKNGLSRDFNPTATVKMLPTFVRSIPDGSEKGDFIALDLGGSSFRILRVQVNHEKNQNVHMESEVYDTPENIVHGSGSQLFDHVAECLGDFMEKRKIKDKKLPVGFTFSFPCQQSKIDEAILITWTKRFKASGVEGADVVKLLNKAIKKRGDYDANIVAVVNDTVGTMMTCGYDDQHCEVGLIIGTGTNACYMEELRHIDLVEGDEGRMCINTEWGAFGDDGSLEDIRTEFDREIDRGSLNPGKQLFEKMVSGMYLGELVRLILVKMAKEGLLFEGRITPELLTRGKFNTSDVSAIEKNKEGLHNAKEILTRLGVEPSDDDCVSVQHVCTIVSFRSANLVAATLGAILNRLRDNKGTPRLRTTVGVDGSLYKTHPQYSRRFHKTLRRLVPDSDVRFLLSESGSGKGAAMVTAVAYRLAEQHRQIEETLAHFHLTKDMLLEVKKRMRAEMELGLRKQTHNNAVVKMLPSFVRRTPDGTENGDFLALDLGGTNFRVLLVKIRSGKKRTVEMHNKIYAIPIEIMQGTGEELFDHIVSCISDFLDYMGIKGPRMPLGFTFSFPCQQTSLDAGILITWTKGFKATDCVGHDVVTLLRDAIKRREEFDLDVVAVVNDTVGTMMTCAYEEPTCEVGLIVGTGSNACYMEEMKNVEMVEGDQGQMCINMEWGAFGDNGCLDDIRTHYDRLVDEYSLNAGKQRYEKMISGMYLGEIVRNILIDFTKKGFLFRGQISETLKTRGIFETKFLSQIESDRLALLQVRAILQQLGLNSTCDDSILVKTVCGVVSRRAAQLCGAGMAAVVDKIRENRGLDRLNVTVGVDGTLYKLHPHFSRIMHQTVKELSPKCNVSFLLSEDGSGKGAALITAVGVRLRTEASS

[3] = biological target: Beta-adrenergic receptor kinase 1 (Homo sapiens, UniProt P25098); assay: aptamer displacement from bead-bound GRK2 – biochemical, cherry pick 1, bead flow cytometry, dose response (AID 504500)
[4] = biological target: Guanyl-specific ribonuclease T1 (Aspergillus oryzae (strain ATCC 42149 / RIB 40), UniProt P00651); assay: inhibition of ribonuclease T1 activity – biochemical, fluorescence polarization, 1536-well, counter-screen for TPT1 inhibitor project, dose response (AID 2167)
[5] = biological target: Likely tRNA 2'-phosphotransferase (Candida albicans (strain SC5314 / ATCC MYA-2876) (Yeast), UniProt Q5A7N4); assay: inhibition of Candida TPT1 enzyme activity – biochemical, fluorescence polarization, dose response (AID 2160)
[6] = biological target: Beta-2 adrenergic receptor (Homo sapiens, UniProt P07550); assay: ADRB2 activation measured by internalization – cell-based, FAP fluorogen, flow cytometry, cherry pick 1, dose response (AID 588763); format: functional
[7] = luciferase reporter signal reduction – luminescence, H4-C neuroglioblastoma cells, dose response (AID 2458); format: functional, cell-based;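 note: H4 neuroglioblastoma cells stably carrying a luciferase reporter gene fusion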
BJ [8] = assay: growth inhibition of engineered Ras-driven BJ cells – cell-based, alamar blue fluorescence, cherrypicked samples, dose response (AID 2631); format: functional; conditions: Homo sapiens;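 note: confirmatory dose-response assay in RAS-dependent BJ fibroblasts engineered with TERT, LT and ST, with cytotoxicity read by fluorescence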
[9] = DRD fibroblast viability loss – cell-based, non-viral oncogenic, luminescence, dose response (AID 1934); format: functional; conditions: Homo sapiens
BJ [10] = assay: BJ-TERT-LT-ST fibroblast viability loss – cell-based, RAS-independent, luminescence, dose response (AID 1935); format: functional; conditions: Homo sapiens;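 note: BJ fibroblasts immortalized with TERT plus LT and ST oncogenes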
[11] = Luminescence Cell-Based Dose Response HTS to Identify Inhibitors of 5'UTR Stem-Loop Driven Prion Protein mRNA Translation in H4 Neuroglioblastoma Cells. [Related pubchem assays: 1827 (Project Summary), 1813 (Primary HTS)]; format: functional
cells = format: functional, cell-based
[12] = luciferase reporter signal suppression in cells – H4 neuroglioma cells, luminescence, dose response (AID 1990); format: functional, cell-based
BJ [13] = assay: cells; format: functional, cell-based; conditions: Homo sapiens
[14] = alpha-synuclein stem-loop luciferase translation blockers – H4 neuroglioma cells, luminescence, confirmation (AID 1988); format: functional, cell-based
Phospholipase A2 = Phospholipase A2 (Homo sapiens, UniProt P04054); assay: phospholipase A2 activity inhibition – biochemical, set 2, counter-screen for ATG4B inhibitor project, dose response (AID 588586); format: functional
[15] = alpha-synuclein stem-loop translation blockers – luminescence, H4 neuroglioblastoma cells, dose confirmation, confirmation (AID 2454); format: functional, cell-based;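 note: H4 neuroglioblastoma cells carrying an alpha-synuclein 5'UTR luciferase reporter; potency for inhibition of the luciferase signal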
Cysteine protease ATG4B = biological target: T3, Cysteine protease ATG4B (Homo sapiens, UniProt Q9Y4P1); assay: autophagin-1 cysteine protease inhibition – biochemical, fluorescence, set 2, dose response (AID 588584); format: functional
T3 sequence (Q9Y4P1 whole entry): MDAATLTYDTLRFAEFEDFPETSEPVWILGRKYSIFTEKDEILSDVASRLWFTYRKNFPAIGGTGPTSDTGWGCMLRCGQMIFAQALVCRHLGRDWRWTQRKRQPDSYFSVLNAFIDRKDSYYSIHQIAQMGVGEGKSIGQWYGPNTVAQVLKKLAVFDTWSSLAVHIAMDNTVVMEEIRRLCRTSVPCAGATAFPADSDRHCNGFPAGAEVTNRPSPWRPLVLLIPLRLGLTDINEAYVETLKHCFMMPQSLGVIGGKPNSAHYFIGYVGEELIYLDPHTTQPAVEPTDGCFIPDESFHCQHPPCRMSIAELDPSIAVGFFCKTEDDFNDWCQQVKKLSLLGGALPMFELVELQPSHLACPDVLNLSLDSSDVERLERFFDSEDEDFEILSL

Phospholipase A2, sequence (P04054 whole entry): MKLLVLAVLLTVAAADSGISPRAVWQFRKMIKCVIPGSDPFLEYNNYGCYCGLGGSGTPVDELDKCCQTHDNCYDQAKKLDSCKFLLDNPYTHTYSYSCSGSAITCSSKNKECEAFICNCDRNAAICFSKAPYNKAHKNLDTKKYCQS
Likely tRNA 2'-phosphotransferase, sequence (Q5A7N4 whole entry): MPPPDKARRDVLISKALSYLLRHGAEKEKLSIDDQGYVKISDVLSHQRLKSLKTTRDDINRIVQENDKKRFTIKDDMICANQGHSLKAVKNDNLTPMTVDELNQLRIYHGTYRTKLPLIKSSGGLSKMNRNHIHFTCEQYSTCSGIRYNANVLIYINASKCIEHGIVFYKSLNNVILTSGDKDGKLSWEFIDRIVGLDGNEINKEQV
Beta-adrenergic receptor kinase 1, sequence (P25098 whole entry): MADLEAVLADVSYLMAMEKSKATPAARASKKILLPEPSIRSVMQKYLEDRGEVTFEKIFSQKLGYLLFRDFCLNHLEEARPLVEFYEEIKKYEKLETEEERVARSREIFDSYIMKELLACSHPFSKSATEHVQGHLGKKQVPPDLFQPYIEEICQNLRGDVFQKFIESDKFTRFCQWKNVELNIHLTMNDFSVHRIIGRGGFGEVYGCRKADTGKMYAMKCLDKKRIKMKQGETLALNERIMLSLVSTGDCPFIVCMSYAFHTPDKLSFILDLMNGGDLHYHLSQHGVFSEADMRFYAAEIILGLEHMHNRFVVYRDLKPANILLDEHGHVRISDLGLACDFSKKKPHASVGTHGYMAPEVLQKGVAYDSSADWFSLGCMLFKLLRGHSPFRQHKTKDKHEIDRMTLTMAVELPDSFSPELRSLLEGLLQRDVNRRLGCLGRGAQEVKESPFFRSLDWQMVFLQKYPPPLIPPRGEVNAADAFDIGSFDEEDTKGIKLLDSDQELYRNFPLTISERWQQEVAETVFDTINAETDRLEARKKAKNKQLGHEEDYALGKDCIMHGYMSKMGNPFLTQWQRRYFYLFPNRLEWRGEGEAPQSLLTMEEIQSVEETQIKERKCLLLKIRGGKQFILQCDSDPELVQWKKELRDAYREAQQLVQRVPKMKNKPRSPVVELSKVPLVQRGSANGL
Beta-2 adrenergic receptor, sequence (P07550 whole entry, the tested form may be a part): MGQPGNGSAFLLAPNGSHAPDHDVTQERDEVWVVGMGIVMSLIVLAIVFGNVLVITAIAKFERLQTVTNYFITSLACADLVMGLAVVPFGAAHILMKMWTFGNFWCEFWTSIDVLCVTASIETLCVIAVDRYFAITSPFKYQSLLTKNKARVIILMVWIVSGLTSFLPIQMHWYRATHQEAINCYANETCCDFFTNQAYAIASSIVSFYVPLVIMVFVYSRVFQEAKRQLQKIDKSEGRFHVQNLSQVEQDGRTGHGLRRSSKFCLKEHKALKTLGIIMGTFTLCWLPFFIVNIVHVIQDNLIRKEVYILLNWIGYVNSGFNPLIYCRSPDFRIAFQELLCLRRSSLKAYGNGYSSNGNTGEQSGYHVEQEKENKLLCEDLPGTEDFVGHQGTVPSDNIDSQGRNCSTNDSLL
Guanyl-specific ribonuclease T1, sequence (P00651 whole entry): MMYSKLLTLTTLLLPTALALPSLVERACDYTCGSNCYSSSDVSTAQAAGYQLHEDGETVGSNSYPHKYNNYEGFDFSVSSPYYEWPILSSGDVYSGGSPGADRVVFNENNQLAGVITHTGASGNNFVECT

CCN(CC)CC(=O)c1c[nH]c2ccc(OC)cc12
AC50 (Escherichia coli [1]): 26.5 µM (active)
AC50 (Escherichia coli [2]): 25.6 µM (active)

CNc1cc2n(c(=O)n1)CCc1cc(OC)c(OC)cc1-2
IC50 (Hexokinase HKDC1): > 80 µM (inactive)
IC50 (Hexokinase-1): > 80 µM (inactive)

NC(=O)c1cc[n+](CC2=C(C(=O)O)N3C(=O)[C@@H](NC(=O)[C@@H](c4ccccc4)S(=O)(=O)[O-])[C@H]3SC2)cc1 [CEFSULODIN SODIUM]
EC50 [3]: 0.07 µM (active)
IC50 [4]: > 55.7 µM (not active)
IC50 [5]: 1.69 µM (active)

CCCCN(CCCC)c1nc(OC)nc(-n2nnc(C(C)=O)c2C)n1
EC50 [6]: 12.1 µM (inactive)

CCC1=Nc2cc(C(=O)NCc3ccco3)ccc2Sc2ccc(C)cc21
EC50 [7]: 0.756 µM (active)
EC50 (BJ [8]): < 0.104 µM (active)
EC50 [9]: 0.496 µM (active)
EC50 (BJ [10]): 0.597 µM (active)
EC50 [11]: 0.243 µM (active)
EC50 (cells): 0.919 µM (active)
EC50 [12]: 0.25 µM (active)
EC50 (BJ [13]): 13.1 µM (inconclusive)
EC50 [14]: < 0.1 µM (active)
IC50 (Phospholipase A2): 51.7 µM (inactive)
EC50 [15]: > 12 µM (inconclusive)
IC50 (Cysteine protease ATG4B): > 80 µM (inactive)
